Series [1] can be described thus: Oxidative degradation of clevidipine: influence of oxygen content in headspace (H324/78). It is filed as physicochemical. The following applies: exposed to ambient light. The text has this: Nanoparticle formulations with clevidipine (formulation numbers 31, 40 and 42) as well as clevidipine solutions were purged either with nitrogen or compressed air, and exposed to ambient light to determine the effect of head space oxygen on the formation of oxidative degradation product, H324/78.

The conditions of series [2]: in vivo; cited from earlier work.
The conditions of series [3]: cited from earlier work.

For the compound `CCCC(=O)OCOC(=O)C1=C(C)NC(C)=C(C(=O)OC)C1c1cccc(Cl)c1Cl` (centres unmarked) [Clevidipine, clevidipine], in series [1] (purged with compressed air (Air)), the “H324/78 (% Area)” value is 3.06 % Area. In addition, the “H324/78 (% Area)” value in series [1] (purged with nitrogen (N2)) was 2.54 % Area. The Initial phase half-life entry in series [2] is “about one minute”. In series [3], the Solubility in lipids entry is listed as “moderate” and the Solubility in water entry was “negligible”.
